According to PMC6263166 (The protein journal, 2011):
Like-named read-outs stand apart in the source and are kept apart here.

Legend:
CYP1A2 [1] = molecular target: T1, CYP1A2 (Homo sapiens, UniProt P05177); conditions: for concentrations at which hCYP1A2 was significantly inhibited: p < 0.05 compared to DMSO control, tested 0.005-1.5 μM
T1 sequence (P05177 1-516): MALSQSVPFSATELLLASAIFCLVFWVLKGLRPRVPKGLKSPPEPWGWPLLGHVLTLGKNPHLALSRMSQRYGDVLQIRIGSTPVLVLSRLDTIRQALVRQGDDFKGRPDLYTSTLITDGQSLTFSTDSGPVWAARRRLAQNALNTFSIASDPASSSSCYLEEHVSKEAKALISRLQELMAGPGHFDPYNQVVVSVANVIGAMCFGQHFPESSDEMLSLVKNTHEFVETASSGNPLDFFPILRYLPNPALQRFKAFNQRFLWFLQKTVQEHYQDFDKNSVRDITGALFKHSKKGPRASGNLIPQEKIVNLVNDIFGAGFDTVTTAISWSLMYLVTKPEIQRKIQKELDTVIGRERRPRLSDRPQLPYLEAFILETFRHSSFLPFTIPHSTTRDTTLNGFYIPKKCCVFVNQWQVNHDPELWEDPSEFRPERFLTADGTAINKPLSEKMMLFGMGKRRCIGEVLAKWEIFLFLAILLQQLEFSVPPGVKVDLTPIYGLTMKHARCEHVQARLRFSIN

CYP1A2 [2] = molecular target: T1, CYP1A2; experiment: biochemical
CYP1A2 [3] = conditions: cited from earlier work
CYP1A2 [4] = conditions: human liver microsomes, ethoxyresorufin as substrate; cited from earlier work
CYP1A2 [5] = molecular target: T1, CYP1A2; experiment: Inhibition matrix assay; type: biochemical
CYP1A2 [6] = molecular target: T1, CYP1A2; experiment: Substrate protection; type: biochemical; conditions: 1.2 μM (KI) isopimpinellin
CYP1A2 [7] = molecular target: T1, CYP1A2; experiment: Partition ratio by titration of the enzyme with the inactivator; type: biochemical
CYP1A2 [8] = molecular target: T1, CYP1A2; experiment: NADPH-dependent and GSH- and SOD-independent inactivation; type: biochemical; conditions: 8 μM isopimpinellin
CYP1A2 [9] = molecular target: T1, CYP1A2; experiment: in vitro
CYP1A2 [10] = molecular target: T1, CYP1A2
CYP1A2 [11] = molecular target: T1, CYP1A2; experiment: Irreversibility of inactivation; type: biochemical
[12] = human liver microsomes, various substrates

O=c1ccc2ccc3occc3c2o1 [angelicin]
significance of hCYP1A2 inhibition (CYP1A2 [1]; p < 0.05, tested 0.5-150 μM): significant hCYP1A2 inhibition at all tested concentrations
IC50 (CYP1A2 [2]): 9600 nM

CC(C)=CCOc1c2occc2cc2ccc(=O)oc12 [imperatorin]
IC50 (CYP1A2 [4]): 380 ± 120 nM
Ki (CYP1A2 [5]): 7 nM
mode of inhibition (CYP1A2 [5]; Dixon plots of the kinetics data): mixed inhibition
concentrations at which hCYP1A2 was significantly inhibited (CYP1A2 [1]): ≥ 5 nM
IC50 (CYP1A2 [2]): 20 nM

COc1c2ccoc2c(OC)c2oc(=O)ccc12 [isopimpinellin]
activity of hCYP1A2 (CYP1A2 [6]; 0 μM methoxyresorufin in preincubation): 31.8%
activity of hCYP1A2 (CYP1A2 [6]; 0.4 μM methoxyresorufin in preincubation): 33.9%
activity of hCYP1A2 (CYP1A2 [6]; 2.0 μM methoxyresorufin in preincubation): 36.9%
activity of hCYP1A2 (CYP1A2 [6]; 10 μM methoxyresorufin in preincubation): 65.4%
partition ratio (CYP1A2 [7]; 0.25-64 μM, preincubation 30 min, extrapolated from lower ratio data points): 8
remaining CYP1A2 activity at high inactivator to enzyme ratios (CYP1A2 [7]; five highest concentration ratios of isopimpinellin to hCYP1A2): no remaining CYP1A2 activity
IC50 (CYP1A2 [4]): 860 ± 180 nM
effect of GSH on inactivation (CYP1A2 [8]; GSH 250 μM): GSH failed to protect the hCYP1A2 inactivation
effect of SOD on inactivation (CYP1A2 [8]; SOD 1000 units): SOD did not prevent hCYP1A2 from inactivation, but rather enhanced the inactivation
effect of NADPH on inactivation (CYP1A2 [8]; with and without 250 μM NADPH): the lack of NADPH results in the loss of the inhibitory effect
KI (inactivation) (CYP1A2 [9]): 1200 nM
kinact (CYP1A2 [9]): 0.00567 s⁻¹
kinact/KI (CYP1A2 [9]): 5000 M⁻¹ s⁻¹
t1/2 (time required for half the enzyme molecules to be inactivated) (CYP1A2 [10]): 2.05 ± 0.22 min
concentrations at which hCYP1A2 was significantly inhibited (CYP1A2 [1]): ≥ 50 nM
activity remaining pre- and post-dialysis (CYP1A2 [11]; 6.4 μM, one assay with six replicates (assay development)): 24 ± 2%
activity recovered after dialysis (CYP1A2 [11]; 8 μM, after 20 h of dialysis): approximately 21%
IC50 (CYP1A2 [2]): 460 nM

Cc1cc2cc3c(C)cc(=O)oc3c(C)c2o1 [trioxsalen, reference compound]
Ki (CYP1A2 [5]): 100 nM
mode of inhibition (CYP1A2 [5]): mixed inhibition
IC50 (CYP1A2 [2]): 790 nM
